Among the data in ChEMBL document CHEMBL4184162, “Hybrid DNA i-motif: Aminoethylprolyl-PNA (pC5) enhance the stability of DNA (dC5) i-motif structure” (Bioorg Med Chem Lett, 2017) are ΔTm and Activity values, retold here.

Assay [1] in a line: Stabilization of i-motif DNA (unknown origin) assessed as change in melting temperature at 22.5 uM at pH 4.5 in presence of DC5 by UV-based analysis.
A short description of assay [2]: Stabilization of i-motif DNA (unknown origin) assessed as change in melting temperature at 22.5 uM at pH 5 in presence of DC5 by UV-based analysis.
The nature of assay [3]: Stabilization of i-motif DNA (unknown origin) assessed as change in melting temperature at 22.5 uM at pH 5.5 in presence of DC5 by UV-based analysis.
Assay [4] is described as follows: Stabilization of i-motif DNA (unknown origin) assessed as change in melting temperature at 22.5 uM at pH 6 in presence of DC5 by UV-based analysis.
Assay [5] is described as follows: Stabilization of i-motif DNA (unknown origin) at 22.5 uM at pH 4 to 6 by CD-spectra analysis.

The source made the active and inactive calls. No cut-off for these calls is given here.

One may read the ΔTm as the shift of the melting midpoint relative to a reference. `CC(=O)NCCN1C[C@@H](n2ccc(N)nc2=O)C[C@H]1C(=O)NCCN1C[C@@H](n2ccc(N)nc2=O)C[C@H]1C(=O)NCCN1C[C@@H](n2ccc(N)nc2=O)C[C@H]1C(=O)NCCN1C[C@@H](n2ccc(N)nc2=O)C[C@H]1C(=O)NCCN1C[C@@H](n2ccc(N)nc2=O)C[C@H]1C(=O)NCCC(N)=O`: the ΔTm in assay [1] is 15.3 °C; in assay [2], 17.9 °C; in assay [3], 8.85 °C; in assay [4], 13.2 °C. For the same compound, the result in assay [5] was Active.
